For assay [1], the system named is pERK in NCI-H1838 (NF1-LOF). Kind of assay: pERK modulation in vitro, MSD ELISA, NCI-H1838. As to conditions: for extent of the pERK increase: NCI-H1838, compared across type II RAF inhibitors; for EC50: read-out: pERK EC50.
Method: (§1) MSD ELISA experiments were conducted by WuXi AppTec on whole cell lysates and generated using the Phospho/Total ERK1/2 Assay Whole Cell Lysate Kit (MSD, cat. no. K15107D) according to the manufacturer’s protocol.
(§2) In vitro modulation of pERK levels was assessed in NF1-LOF and BRAF V600E tumor cell lines by MSD ELISA.
(§3) pERK levels were assessed 1 hour after treatment with each of the test compounds or control. Preparation of 96-well plates for MSD ELISA was performed according to the manufacturer’s instructions using the Phospho/Total ERK1/2 Assay Whole Cell Lysate Kit (MSD, cat no. K15107D). The plates were read using the MSD reader (MESO QuickPlex SQ120, cat. no. SQ120, RRID: SCR_020304). The A375 BRAF V600E tumor cell line served as a positive control.
(§4) The percent phosphoprotein in a sample was calculated using MSD phospho-/total multiplex phosphoprotein assays, as well as the following formula: anti-total and anti-phospho assay in the same well: % phosphoprotein = [(2 × phospho signal)/(phospho signal + total signal)] × 100. The ratio of pERK to total ERK was normalized to the ratio of the DMSO control group. EC50 pERK values and concentration response curves were generated using GraphPad Prism software analysis (RRID: SCR_002798).
The test system of assay [2] is pERK in A375 (BRAF V600E). Kind of assay: pERK modulation in vitro, MSD ELISA, A375. The class given is cell-based. Particulars: A375, BRAF V600E, melanoma, 1 hour after treatment, n = 2, read-out: pERK EC50.
Method: as §1, §2, §3, §4
The test system of another assay is pERK in MeWo (NF1-LOF). Kind of assay: pERK modulation in vitro, MSD ELISA, MeWo. For orientation: In an ELISA, binding on a coated surface is turned into a signal by an enzyme label.
A further assay concerns MeWo. Kind of assay: CellTiter-Glo cell viability assay, MeWo. (In general: ATP-based viability assays read luminescence as a measure of living cells.)
Assay [3] has as its system pERK in sNF96.2 (NF1-LOF). Kind of assay: pERK modulation in vitro, MSD ELISA, sNF96.2. Particulars: read-out: pERK EC50.
Method: as §1, §2, §3, §4
The target in the next assay is T1, ARAF (Homo sapiens, UniProt P10398).
T1 sequence (P10398 310-570 limits assumed): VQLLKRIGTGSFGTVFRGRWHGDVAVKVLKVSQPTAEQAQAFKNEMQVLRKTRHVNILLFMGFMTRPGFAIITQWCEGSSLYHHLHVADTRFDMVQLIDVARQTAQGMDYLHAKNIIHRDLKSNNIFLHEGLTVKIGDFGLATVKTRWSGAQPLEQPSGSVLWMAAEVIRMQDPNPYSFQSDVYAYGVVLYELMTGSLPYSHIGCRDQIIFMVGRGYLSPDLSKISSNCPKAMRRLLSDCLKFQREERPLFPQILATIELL
Kind of assay: Time-resolved fluorescence energy transfer binding assay (KINETICfinder). Particulars: partial length active recombinant human ARAF at 5 nmol/L; 60 minutes, room temperature; singlicate. On the procedure:
Compounds were mixed with assay buffer (50 mmol/L HEPES pH 7.5, 1 mmol/L Ethyleneglycol-bis-(aminoethyl-ether)-N,N,N',N'-tetraacetic acid, 0.01% Brij-35, 10 mmol/L MgCl2, and 2 mmol/L Dithiothreitol), and 5 μL of this solution was transferred to the assay plate. The final concentration of DMSO in the assay was 1%. Hundred percent DMSO was used as a high and low control. Assays were run in singlicate with a reference compound included in each assay to evaluate reproducibility and assay quality.
Wells containing the fluorescent probe, antibody, and target (ARAF) were used as the high reaction control (total binding) and wells containing the probe and antibody were used as the low reaction control (nonspecific binding). […] Next, the substrate antibody solution was added, and the reaction was incubated for 60 minutes at room temperature. Percentage inhibition of each well was calculated using the following formula: % inhibition = 100 − [compound emission ratio (ER) − low control ER/high control ER − low control ER] × 100. Results were fitted to a concentration response curve with a variable slope and constraints of 0 and 100 for bottom and top, respectively, to generate the IC50 values.

The test system of the next assay is NCI-H1838. Kind of assay: CellTiter-Glo cell viability assay, NCI-H1838. Particulars: read-out: Proliferation EC50.
For another assay, the system named is A375. Kind of assay: CellTiter-Glo cell viability assay, A375. As to conditions: read-out: Proliferation EC50.
A further assay has as its system sNF96.2. Kind of assay: CellTiter-Glo cell viability assay, sNF96.2. Particulars: read-out: Proliferation EC50.
For the next assay, the system named is CRAF wt. More on the design: method as in earlier work. Particulars: full length human construct; GST-tagged CRAF wild type, 50 nmol/L biotinylated MEK, ATP 10 μmol/L; 41 (TAK-632: ref 26-28); cited from earlier work.
For a further assay, the system named is BRAF wt. More on the design: method as in earlier work. Particulars: full length human construct; 0.125 nmol/L GST-tagged BRAF wild type, 12.5 nmol/L biotinylated MEK, ATP 50 μmol/L; 41 (TAK-632: ref 26-28); cited from earlier work.
The next assay concerns NF1-LOF tumor cell lines. Kind of assay: CellTiter-Glo cell viability assay, statement on all three NF1-LOF tumor cell lines. As to conditions: CTG 72 hours.

Like-named read-outs stand apart in the source and are kept apart here. Bounds are passed on as bounds.

Method for NF1-LOF tumor cell lines: Next, 2 μL of each concentration was added to 198 μL assay medium (PBS) to create a 10× stock. […] MSD ELISA experiments were conducted by WuXi AppTec on whole cell lysates and generated using the Phospho/Total ERK1/2 Assay Whole Cell Lysate Kit (MSD, cat. no. K15107D) according to the manufacturer’s protocol.
The in vitro anti-proliferation effect of each of the test compounds was assessed in NF1-LOF and BRAF V600E tumor cell lines cultured as a monolayer using the CellTiter-Glo (CTG) cell viability assay. Cell culture experiments were performed with duplicate wells. Cell concentrations were adjusted for cell density (seeding density of 5,000 for sNF96.2 and MeWo; 6,000 for NCI-H1838; and 2,500 for A375) prior to plating onto a 96-well assay plate and incubated overnight at 37°C with 5% CO2, 95% air, and 100% relative humidity.
Anti-proliferative activity was assessed after 72 hours of treatment with the test compound or control. […] DMSO was also applied as a control on days 2 and 3. The final DMSO concentration for all test compounds and vehicle control was 0.1%. […] Luminescence was measured on day 3 using the 2104 EnVision Multilabel Reader (PerkinElmer).
The inhibition rate of the tested compounds was determined using the following formula: inhibition rate (%) = (1 − [relative luminescence unit (RLU) compound − RLU blank])/(RLU control − RLU blank) × 100. […]
Method for pERK in MeWo (NF1-LOF): as §1, §2, §3, §4

As for `O=C1CCc2c(Oc3ccc4c(c3)[C@@H]3[C@H](O4)[C@H]3c3nc4ccc(C(F)(F)F)cc4[nH]3)ccnc2N1` [BGB-283], the “extent of the pERK increase” value in [1] (1 hour after treatment) is on record as “higher extent”.

With `Cc1ccc2c(Nc3cccc(Cl)c3F)nccc2c1NC(=O)c1csc2c(N)ncnc12` [Belvarafenib], the “extent of the pERK increase” value in assay [1] (1 hour after treatment) is on record as “lesser extent”.

For `Cc1ccc(NC(=O)c2ccnc(C(F)(F)F)c2)cc1-c1cc(OCCO)nc(N2CCOCC2)c1` [LXH254], in [1] (1 hour after treatment), the “extent of the pERK increase” value is listed as “lesser extent”.

The IC50 is the midpoint of a concentration-inhibition curve. Take `N#Cc1c(Oc2ccc(F)c(NC(=O)Cc3cccc(C(F)(F)F)c3)c2)ccc2nc(NC(=O)C3CC3)sc12` [TAK-632]: the EC50 is 30 nM in assay [2]; 1600 nM in the assay with pERK in MeWo (NF1-LOF) (read-out: pERK EC50, NF1-LOF, melanoma, 1 hour after treatment, n = 2); 1250 nM in [1] (NCI-H1838, NF1-LOF, lung, 1 hour after treatment, n = 1); 4100 nM with MeWo (read-out: Proliferation EC50, CTG 72 hours after treatment, repeated application of tovorafenib); 750 nM in [3] (sNF96.2, NF1-LOF, MPNST, 1 hour after treatment, n = 2); 3300 nM with NCI-H1838 (NCI-H1838, CTG 72 hours after treatment, n = 1, repeated application of tovorafenib). The EC50 is 70 nM with A375 (A375, CTG 72 hours after treatment, repeated application of tovorafenib) and 2400 nM with sNF96.2 (sNF96.2, CTG 72 hours after treatment, repeated application of tovorafenib). In addition, in [1] (1 hour after treatment), the “extent of the pERK increase” value was “lesser extent”. In addition, the IC50 on ARAF is 215 nM; in the assay with CRAF wt, 1.4 nM; in the assay with BRAF wt, 8.3 nM.

Turning to `CCCS(=O)(=O)Nc1ccc(F)c(C(=O)c2c[nH]c3ncc(-c4ccc(Cl)cc4)cc23)c1F` [Vemurafenib], the EC50 in assay [2] (Homo sapiens, A-375) is 20 nM; in the assay on pERK in MeWo (NF1-LOF) (Homo sapiens, 1 h, read-out: pERK EC50) it was > 10000 nM; in [1] (Homo sapiens, NCI-H1838, 1 h), > 10000 nM; in the assay on MeWo (Homo sapiens, 72 h, read-out: Proliferation EC50), 4500 nM; in [3] (SNF96.2, 1 h), > 10000 nM; in the assay with NCI-H1838 (Homo sapiens, NCI-H1838, 72 h), > 10000 nM. Besides, the EC50 turned out to be 90 nM in the assay with A375 (Homo sapiens, A-375, 72 h) and 6000 nM with sNF96.2 (SNF96.2, 72 h). The “sensitivity of cell lines” value with NF1-LOF tumor cell lines is listed as “insensitive”.

The values above are taken from publication PMC12015663 (Cancer Research Communications, 2025).
